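Cultured in 96-well plates, cells were exposed to test compound for 48 hours across five concentrations. At the GI50, growth is halved. Definition used: TGI = concentration required for complete inhibition of growth.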 Where a SMILES comes first, the peptide text is derived from it. [ ]: non-standard residue; d: D form. Ac5c = NC1(C(=O)O)CCCC1

Common to all, as to experiment: NCI tumour cell line growth inhibition, 48 h
Assay [1] has as its system ACHN renal.
Assay [2] has as its system CAKI-1 renal.
Assay [3] relates to CCRF-CEM leukemia.
Assay [4] deals with HS 578T breast.
For assay [5], the system named is HT29 colon.
The test system of assay [6] is IGROV1 ovarian.
Assay [7] deals with MCF7 breast.
Assay [8] has as its system NCI/ADR-RES ovarian.
Assay [9] deals with PC-3 prostate.
The test system of assay [10] is SK-MEL-5 melanoma.

In the case of `OC1(CCc2ccccc2)COC(C(F)(F)F)(C(F)(F)F)C1` (centres undefined), the TGI in assay [1], in assay [2], in assay [3], in [4], in assay [5] and in assay [6] was more than 100 µM each time. Moreover, the TGI in assay [7], in assay [8], in [9] and in assay [10] was more than 100 µM throughout.

`CC(=O)c1c(C)[nH]c(-c2nc3ccc(N4CCN(C)CC4)cc3[nH]2)c1-c1ccc(OCC2CCOCC2)cc1`: the GI50 in assay [1] is 0.777 µM; in assay [2] it was 0.326 µM; in [3], 0.654 µM; in assay [4] it was 0.346 µM; in assay [5], 0.302 µM; in assay [6] it was 0.854 µM. Further, the GI50 was 0.218 µM in [7], 1.02 µM in assay [8], 0.693 µM in assay [9] and 0.966 µM in assay [10]. The TGI is 12.4 µM in assay [1]; 12.6 µM in assay [2]; more than 47.1 µM in assay [3]; 8.71 µM in [4]; 20.5 µM in assay [5]; 12.8 µM in assay [6]. Moreover, the TGI stood at 11.6 µM in [7], 30.5 µM in assay [8], 19.3 µM in assay [9] and 3.17 µM in assay [10].

Turning to `O=C(O[C@H]1CN[C@H](C#Cc2cc3ncnc(Nc4ccc5c(ccn5Cc5cc(F)ccc5F)c4)c3s2)C1)N1CCOCC1`, the GI50 is 0.575 µM in assay [1]; 0.187 µM in assay [2]; 5.59 µM in [3]; 0.488 µM in assay [4]; 3.86 µM in assay [5]; 1.33 µM in assay [6]. The GI50 in assay [7] was 4.13 µM; in assay [8], 3.7 µM; in assay [9] it was 5.52 µM; in assay [10] it was 2.95 µM. The TGI is more than 25 µM in assay [1]; more than 21.7 µM in [2]; 24.9 µM in [3]; more than 25 µM in assay [4]; 8.97 µM in assay [5]; more than 16.7 µM in [6]. Besides, the TGI was more than 14.5 µM in [7], more than 23.2 µM in [8], more than 23.7 µM in [9] and 6.13 µM in assay [10].

For the compound `CCN(CC)C(=C(C(Cl)=C(Cl)Cl)[N+](=O)[O-])N(CC)CC`, the TGI is more than 100 µM in assay [1]; more than 100 µM in assay [2]; more than 100 µM in [3]; 68.5 µM in [4]; more than 100 µM in [5]; more than 100 µM in assay [6]. Further, the TGI in assay [7], in [8], in assay [9] and in assay [10] was more than 100 µM in each case.

Take `CC(=O)CC(=O)Nc1ccc2ccccc2c1`: the TGI in assay [1], in [2], in assay [3], in assay [4], in assay [5] and in assay [6] was more than 100 µM each time. Also, the TGI in assay [7], in assay [8], in assay [9] and in assay [10] was more than 100 µM throughout.

Take `NC1(C(=O)NC2(C(=O)O)CCCC2)CCCC1` (H-[Ac5c]-[Ac5c]-OH): the TGI in assay [1], in assay [2], in assay [3], in assay [4], in assay [5] and in assay [6] was more than 100 µM each time. The TGI in assay [7], in [8], in [9] and in assay [10] was more than 100 µM throughout.

For the compound `COc1cc(C(=O)/C(C)=C/c2c[nH]c3ccccc23)cc(OC)c1OC`, the GI50 is 0.00619 µM in assay [1]; 0.00421 µM in [2]; 0.00511 µM in [3]; 0.00478 µM in assay [4]; 0.00402 µM in assay [5]; 0.00566 µM in [6]. Further, the GI50 in [7] was 0.00357 µM; in [8] it was 0.00322 µM; in [9], 0.00789 µM; in assay [10], 0.00428 µM. For the same compound, the TGI in [1] was more than 100 µM; in [2], more than 100 µM; in [3], more than 100 µM; in [4] it was 48 µM; in assay [6], more than 100 µM; in assay [7], more than 100 µM. Besides, the TGI in assay [8] is more than 100 µM; in assay [9], more than 100 µM; in assay [10] it was 0.0205 µM.

On to `COc1cc(Nc2nccc(Nc3ccc4c(C)[nH]nc4c3)n2)cc(OC)c1OC`, for which the GI50 in [1] is 1.9 µM; in assay [2] it was 1.05 µM; in assay [3], 6 µM; in assay [4], 0.604 µM; in [5], 0.916 µM; in assay [6] it was 0.858 µM. Moreover, the GI50 in [7] is 1.62 µM; in assay [8], 4.39 µM; in [9] it was 2.33 µM; in assay [10], 2.69 µM. Further, the TGI in [1] was more than 25 µM; in assay [2], 4.62 µM; in [3], more than 25 µM; in assay [4], 5.15 µM; in assay [5] it was 4.49 µM; in assay [6], 5.6 µM. Moreover, the TGI in [7] is 16.9 µM; in assay [8] it was 13.7 µM; in assay [9], more than 20.5 µM; in assay [10], 5.96 µM.

`COc1ccc(CN(C)c2ccc(CO)c(Cl)c2)cc1`: the GI50 in assay [1] was 32.6 µM; in assay [2], 3 µM; in assay [3] it was 32.9 µM; in assay [4], 38.4 µM; in assay [5], 5.5 µM; in assay [6], 0.405 µM. For the same compound, the GI50 was 0.892 µM in assay [7], 15.9 µM in assay [8], 20.7 µM in assay [9] and 8.24 µM in assay [10]. Further, the TGI in assay [1] was more than 100 µM; in assay [2], more than 64.1 µM; in [3], more than 100 µM; in [4], more than 100 µM; in assay [5] it was more than 88.3 µM; in assay [6], 3.3 µM. Also, the TGI in assay [7] was more than 64.9 µM; in assay [8], 55.3 µM; in assay [9], more than 100 µM; in [10], 21.9 µM.

Take `C=C1C(=O)C23CC1C[C@H](OC(C)=O)[C@H]2C1(C)C(OC(C)=O)C[C@H](O)C(C)(C)[C@H]1C(=O)[C@@H]3OC(C)=O` (some centres undefined): the TGI in assay [1] turned out to be 14.1 µM; in [2] it was 8.17 µM; in assay [3], 7.65 µM; in assay [4], 15.3 µM; in assay [5], 17 µM; in assay [6] it was 25.8 µM. In addition, the TGI in [7] was determined as 14 µM; in [8] it was 35.6 µM; in [9], 24.6 µM; in assay [10], 27.4 µM.

On to `CC(=O)[O-].CC(=O)[O-].[Pt+2].c1cscn1.c1cscn1`, for which the GI50 in assay [1] was 19.7 µM; in [2], more than 100 µM; in assay [3], 54 µM; in [4] it was more than 100 µM; in assay [5], more than 100 µM; in assay [6] it was more than 100 µM. Besides, the GI50 is 37.3 µM in [7], more than 100 µM in [8], more than 100 µM in assay [9] and more than 100 µM in [10]. Further, the TGI in assay [1] was 42.2 µM; in assay [2], more than 100 µM; in assay [3] it was more than 100 µM; in assay [4] it was more than 100 µM; in assay [5] it was more than 100 µM; in assay [6], more than 100 µM. Besides, the TGI in assay [7], in [8], in assay [9] and in [10] was more than 100 µM in each case.

For `COc1cc(/C=C/C(=O)CC(=O)/C=C/c2cc(OC)c(OC)c(OC)c2)cc(OC)c1OC`, the GI50 was 3.95 µM in [1]; 3.27 µM in assay [2]; 2.58 µM in assay [3]; 3 µM in [4]; 3.66 µM in [5]; 2.83 µM in [6]. Moreover, the GI50 in assay [7] is 2.13 µM; in assay [8] it was 4.18 µM; in [9] it was 3.02 µM; in [10], 4.51 µM. Moreover, the TGI in [1] was 14.1 µM; in assay [2], 16.5 µM; in [3], more than 100 µM; in assay [4], 9.51 µM; in [5], 13.6 µM; in assay [6] it was 8.22 µM. The TGI in assay [7] was more than 100 µM; in assay [8] it was more than 100 µM; in assay [9], more than 100 µM; in assay [10], 46 µM.

With `CC(O)c1cccc(NCc2c3ccccc3c(=O)n3c2oc2ccccc23)c1` (centres undefined), the GI50 in assay [1] was 3.51 µM; in assay [2] it was 7.29 µM; in assay [3], 3.34 µM; in assay [4] it was 4.43 µM; in [5], 35.6 µM; in [6], 1.32 µM. The GI50 is more than 100 µM in assay [7], 11.8 µM in [8], 7.11 µM in [9] and 4.87 µM in assay [10]. Further, the TGI in [1] was 13.5 µM; in [2], more than 100 µM; in assay [3], more than 100 µM; in [4] it was 57.4 µM; in assay [5], more than 100 µM; in assay [6] it was 27 µM. The TGI was more than 100 µM in assay [7], 28.5 µM in assay [8], more than 100 µM in assay [9] and 31.6 µM in assay [10].

The record behind these values is PubChem BioAssay (NCI).
